Consider 33 compounds from ChEMBL document CHEMBL5634136 (Eur J Med Chem, 2023).

The nature of series [1]: Antiproliferative activity against mouse KC-0122 cells assessed as inhibition of cell growth incubated for 72 hrs by MTT assay. The series is classed as functional, cell-based. Conditions: KC-0122, 72 h. On the technique in general: Formazan colour is commonly taken as a measure of viable cells.
The nature of series [2]: Antiproliferative activity against mouse KC-0116 cells assessed as inhibition of cell growth incubated for 72 hrs by MTT assay. The class given is functional, cell-based. Conditions: KC-0116, 72 h.
For the next series, the system named is A-431. The series can be described thus: Antiproliferative activity against human A-431 cells harboring wild type EGFR assessed as inhibition of cell growth incubated for 72 hrs by MTT assay. The class given is functional, cell-based. Conditions: A-431, 72 h.
For a further series, the system named is HCC827. Put plainly: Antiproliferative activity against human HCC827 cells harboring EGFR Del19 mutant assessed as inhibition of cell growth incubated for 72 hrs by MTT assay. The series is classed as functional, cell-based. As to conditions: HCC827, 72 h.
Another series concerns HepG2. The series can be described thus: Antiproliferative activity against human HepG2 cells harboring VEGFR assessed as inhibition of cell growth incubated for 72 hrs by MTT assay. The series is classed as functional, cell-based. As to conditions: HepG2, 72 h.
Series [3] has as its target Epidermal growth factor receptor (Mus musculus) (UniProt Q01279). Put plainly: Inhibition of EGFR in mouse KC-0116 cells assessed as downregulation of ERK protein expression level incubated for 24 hrs by Western blotting analysis. The series is classed as cell-based. A general note: A western blot detects proteins with antibodies after separation by electrophoresis.
The target is the same in series [4]. The series can be described thus: Inhibition of EGFR in mouse KC-0116 cells assessed as downregulation of AKT protein expression level incubated for 24 hrs by Western blotting analysis. The class given is cell-based.
The target is the same in series [5]. Put plainly: Inhibition of EGFR in mouse KC-0122 cells assessed as downregulation of ERK protein expression level incubated for 24 hrs by Western blotting analysis. The series is classed as cell-based.
For series [6] the target is unchanged. Put plainly: Inhibition of EGFR in mouse KC-0116 cells assessed as downregulation of EGFR phosphorylation level incubated for 24 hrs by Western blotting analysis. The series is classed as cell-based.
The target is the same in series [7]. Put plainly: Inhibition of EGFR in mouse KC-0122 cells assessed as downregulation of EGFR phosphorylation level incubated for 24 hrs by Western blotting analysis. The series is classed as cell-based.
The subject of a further series is NCI-H1975. Put plainly: Antiproliferative activity against human NCI-H1975 cells harboring EGFR L858R/T790M mutant assessed as inhibition of cell growth incubated for 72 hrs by MTT assay. Conditions: NCI-H1975, 72 h. The series is classed as functional, cell-based.
Series [8] deals with Epidermal growth factor receptor (Mus musculus) (UniProt Q01279). The series can be described thus: Inhibition of EGFR in mouse KC-0122 cells assessed as downregulation of AKT protein expression level incubated for 24 hrs by Western blotting analysis. The class given is cell-based.
Series [9] in a line: Induction of apoptosis in mouse KC-0116 cells assessed as viable cells at 1 uM incubated for 48 hrs by annexin V-FITC/ PI staining based flow cytometry (reference value: 93.27 %). The class given is functional. For orientation: Flow cytometry measures light scatter and fluorescence of single cells or particles in a stream.
The nature of series [10]: Induction of apoptosis in mouse KC-0116 cells assessed as necrotic cells at 0.3 uM incubated for 48 hrs by annexin V-FITC/ PI staining based flow cytometry (reference value: 0.04 %). The class given is functional.
Series [11] can be described thus: Induction of apoptosis in mouse KC-0116 cells assessed as necrotic cells at 1 uM incubated for 48 hrs by annexin V-FITC/ PI staining based flow cytometry (reference value: 0.04 %). The series is classed as functional.
Series [12] in a line: Induction of apoptosis in mouse KC-0116 cells assessed as late apoptotic cells at 0.3 uM incubated for 48 hrs by annexin V-FITC/ PI staining based flow cytometry (reference value: 1 %). The series is classed as functional.
A short description of series [13]: Induction of apoptosis in mouse KC-0116 cells assessed as viable cells at 0.3 uM incubated for 48 hrs by annexin V-FITC/ PI staining based flow cytometry (reference value: 93.27 %). The class given is functional.
Series [14] in a line: Toxicity in BALB/c mouse xenografted with mouse KC-0116 cells assessed as change in body weight at 10 mg/kg,po administrated once daily for 10 days. The series is classed as organism-based. As to conditions: in vivo, 240 h, time 10 day.
A short description of series [15]: Induction of apoptosis in mouse KC-0116 cells assessed as early apoptotic cells at 0.3 uM incubated for 48 hrs by annexin V-FITC/ PI staining based flow cytometry (reference value: 8.09 %). The series is classed as functional.
Series [16] in a line: Induction of apoptosis in mouse KC-0116 cells assessed as late apoptotic cells at 1 uM incubated for 48 hrs by annexin V-FITC/ PI staining based flow cytometry (reference value: 1 %). The class given is functional.
Series [17] in a line: Induction of apoptosis in mouse KC-0116 cells assessed as early apoptotic cells at 1 uM incubated for 48 hrs by annexin V-FITC/ PI staining based flow cytometry (reference value: 8.09 %). The series is classed as functional.

Sequence of Epidermal growth factor receptor (Mus musculus) (Q01279 whole entry): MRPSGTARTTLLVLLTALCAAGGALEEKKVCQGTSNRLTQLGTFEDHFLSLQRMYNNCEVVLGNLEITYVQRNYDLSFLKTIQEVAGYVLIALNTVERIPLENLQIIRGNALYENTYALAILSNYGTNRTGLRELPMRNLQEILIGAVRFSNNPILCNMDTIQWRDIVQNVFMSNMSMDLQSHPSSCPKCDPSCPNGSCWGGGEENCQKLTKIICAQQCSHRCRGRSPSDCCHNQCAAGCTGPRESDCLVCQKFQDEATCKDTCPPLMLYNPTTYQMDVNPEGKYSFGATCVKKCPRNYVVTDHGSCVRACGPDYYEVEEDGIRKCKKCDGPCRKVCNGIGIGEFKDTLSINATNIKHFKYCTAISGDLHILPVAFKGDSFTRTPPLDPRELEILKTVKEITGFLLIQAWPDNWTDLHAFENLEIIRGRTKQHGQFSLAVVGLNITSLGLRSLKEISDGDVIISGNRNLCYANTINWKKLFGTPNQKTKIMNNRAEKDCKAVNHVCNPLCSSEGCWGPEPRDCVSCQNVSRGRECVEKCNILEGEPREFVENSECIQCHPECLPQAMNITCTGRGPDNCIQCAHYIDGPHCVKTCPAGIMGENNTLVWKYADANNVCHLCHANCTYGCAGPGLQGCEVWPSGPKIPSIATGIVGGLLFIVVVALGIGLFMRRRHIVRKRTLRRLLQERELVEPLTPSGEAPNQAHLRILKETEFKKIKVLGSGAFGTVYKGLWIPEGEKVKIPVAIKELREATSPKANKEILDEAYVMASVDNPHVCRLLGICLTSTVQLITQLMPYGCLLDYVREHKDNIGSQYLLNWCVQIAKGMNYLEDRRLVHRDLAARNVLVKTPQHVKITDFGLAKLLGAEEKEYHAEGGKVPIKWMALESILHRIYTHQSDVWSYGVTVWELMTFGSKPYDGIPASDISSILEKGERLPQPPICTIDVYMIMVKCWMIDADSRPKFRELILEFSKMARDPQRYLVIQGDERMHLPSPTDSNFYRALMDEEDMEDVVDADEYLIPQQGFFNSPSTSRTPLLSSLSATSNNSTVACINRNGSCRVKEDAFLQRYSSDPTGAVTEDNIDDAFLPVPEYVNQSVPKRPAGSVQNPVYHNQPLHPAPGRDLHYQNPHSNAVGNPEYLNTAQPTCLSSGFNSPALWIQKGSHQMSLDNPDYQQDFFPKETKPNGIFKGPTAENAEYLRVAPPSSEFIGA

Take `COc1cc(N(C)CCN(C)C)c(NC(=O)CNS(C)(=O)=O)cc1Nc1nccc(-c2cn(C)c3ccccc23)n1`: the IC50 (commonly the concentration that gives 50% inhibition) in series [1] worked out at 1.17 µM; in series [2] it was 1.55 µM.

As to `CN1CCN(c2ccc(Nc3nccc(-c4cn(C)c5ccccc45)n3)cc2)CC1`, the IC50 came to 0.54 µM in series [1] and 0.38 µM in series [2].

Take `COc1cc(N(C)CCN(C)C)c(NC(=O)CO)cc1Nc1nccc(-c2cn(C)c3ccccc23)n1`: the figures for the IC50 in [1] and in [2] were 3.09 µM and 1.39 µM, respectively.

As for `COc1cc(N2CCN(C)CC2)c(NC(=O)CN)cc1Nc1nccc(-c2cn(C)c3ccccc23)n1`, the IC50 in [1] is 1.17 µM; in series [2] it was 1.65 µM.

Take `COc1cc(OCCN(C)C)c(NC(=O)CN)cc1Nc1nccc(-c2cn(C)c3ccccc23)n1`: the half-inhibitory concentration (IC50) in [1] turned out to be 5.45 µM; in [2], 1.5 µM.

Regarding `CN(C)CCN(c1ccc(Nc2nccc(-c3cn(C)c4ccccc34)n2)cc1)S(C)(=O)=O`, the IC50 in series [1] amounted to 0.5 µM; in [2] it was 0.43 µM.

In the case of `COc1cc2c(cc1Nc1nccc(-c3cn(C)c4ccccc34)n1)NC(=O)CCCCCN2CCN(C)C`, the IC50 stood at 2.84 µM in [1] and 2.36 µM in series [2].

On to `C=CC(=O)Nc1cc(Nc2nccc(-c3cn(C)c4ccccc34)n2)c(OC)cc1N(C)CCN(C)C` [OSIMERTINIB], for which the IC50 is […] in series [2], […] with A-431, 0.001 µM in the series on HCC827 and 3.06 µM in the series with HepG2.

Consider `COc1cc(N(C)CCN(C)C)c(NC(=O)CN)cc1Nc1nccc(-c2cn(C)c3ccccc23)n1`, for which the figures for the IC50 in series [1] and in [2] were 2.72 µM and 1.32 µM, respectively.

Consider `COc1cc(N(C)CCN(C)C)ccc1Nc1nccc(-c2cn(C)c3ccccc23)n1`, for which the IC50 stood at 1.61 µM in series [1] and 1.76 µM in series [2].

As for `CN1CCN(C2CCN(c3ccc(Nc4nccc(-c5cn(C)c6ccccc56)n4)cc3NS(=O)(=O)C3CC3)CC2)CC1`, the inhibition result in [3], in series [4], in series [5], in [6], in series [7] and in [8] was “Dose-Dependent Effect” each time. Moreover, the 50% inhibitory concentration (IC50) came out at 0.2 µM in series [1]; 0.17 µM in series [2]; 2.13 µM in the series with A-431; 0.31 µM in the series on HCC827; 1.02 µM in the series on NCI-H1975; 1.5 µM with HepG2.

For the compound `CN(C)CCN(C)c1ccc(Nc2nccc(-c3cn(C)c4ccccc34)n2)cc1`, the concentration for half-maximal inhibition (IC50) in [1] came to 1.55 µM; in series [2], 1.06 µM.

As for `CN(C)C1CCN(c2ccc(Nc3nccc(-c4cn(C)c5ccccc45)n3)cc2)CC1`, the IC50 in series [1] was determined as 0.45 µM; in series [2], 0.4 µM.

In the case of `COc1cc(N(C)CCN(C)C)c(NC(=O)CNC(C)=O)cc1Nc1nccc(-c2cn(C)c3ccccc23)n1`, the IC50 is 1.45 µM in series [1] and 1.98 µM in series [2].

With `COc1cc(N(C)CCN(C)C)c(NC(=O)CCN)cc1Nc1nccc(-c2cn(C)c3ccccc23)n1`, the IC50 in series [1] is 1.63 µM; in [2] it was 1.49 µM.

For the compound `CN(C)C1CCN(c2ccc(Nc3nccc(-c4cn(C)c5ccccc45)n3)cc2NC(=O)CN)CC1`, the IC50 in series [1] is 0.46 µM; in series [2] it was 0.44 µM.

With `Cn1cc(-c2ccnc(Nc3cccc(NS(=O)(=O)C4CC4)c3)n2)c2ccccc21`, the IC50 in [1] was determined as 1.2 µM; in [2], 0.58 µM.

As for `COc1ccc(NC(=O)CN)cc1Nc1nccc(-c2cn(C)c3ccccc23)n1`, the IC50 in [1] is 5.28 µM; in series [2] it was 3.76 µM.

As for `Cn1cc(-c2ccnc(Nc3cccc(NC(=O)CCN)c3)n2)c2ccccc21`, the IC50 was 4.77 µM in series [1] and 4.99 µM in series [2].

Regarding `CN(C)C1CCN(c2ccc(Nc3nccc(-n4cc(NC(=O)c5ccccc5)cn4)n3)cc2NS(C)(=O)=O)CC1`, the IC50 in series [1] amounted to 0.49 µM; in series [2], 0.52 µM.

Consider `Cn1cc(-c2ccnc(Nc3ccc(N4CCOCC4)cc3)n2)c2ccccc21`, for which the IC50 in series [1] is > 10 µM; in [2] it was 7 µM.

For `CN(C)CCOc1ccc(Nc2nccc(-c3cn(C)c4ccccc34)n2)cc1`, the IC50 in [1] was 1.75 µM; in [2], 1.29 µM.

As to `COc1cc(N2CCC(N3CCN(C)CC3)CC2)ccc1Nc1ncc(Cl)c(Nc2ccccc2P(C)(C)=O)n1` [BRIGATINIB], the IC50 in series [1] amounted to 0.45 µM; in series [2], 0.35 µM. Moreover, the Activity in [9] is given as 65.74%; in [10] it was 0.01%; in series [11], 0.32%; in series [12], 1.71%; in series [13] it was 92.51%; in series [14], “Non-Toxic”. Further, the Activity turned out to be 6.75% in series [15], 7.32% in series [16] and 26.61% in series [17].

Take `Cn1cc(-c2ccnc(Nc3ccc(N4CCC(N5CCOCC5)CC4)cc3)n2)c2ccccc21`: the half-maximal inhibitory concentration (IC50) in series [1] was determined as 5.74 µM; in [2], 1.71 µM.

In the case of `Cn1cc(-c2ccnc(Nc3ccc(N4CCCCC4)cc3)n2)c2ccccc21`, the IC50 in series [1] and in series [2] was > 10 µM throughout.

Consider `CN(C)C1CCN(c2ccc(Nc3nccc(-c4cn(C)c5ccccc45)n3)cc2NS(=O)(=O)C2CC2)CC1`, for which the IC50 is 0.25 µM in series [1]; 0.24 µM in series [2]; 2.49 µM in the series with A-431; 0.22 µM with HCC827; 1.42 µM in the series with NCI-H1975; 1.92 µM in the series with HepG2.

With `COc1cc(N2CCC(N3CCN(C)CC3)CC2)ccc1Nc1nccc(-c2cn(C)c3ccccc23)n1`, the IC50 amounted to 1.39 µM in [1] and 1.17 µM in series [2].

Regarding `COc1cc(N(C)CCN(C)C)c(NC(=O)CNC(=O)OC(C)(C)C)cc1Nc1nccc(-c2cn(C)c3ccccc23)n1`, the values for the IC50 in series [1] and in series [2] were 1.28 µM and 1.29 µM, respectively.

With `CN1CCN(C2CCN(c3ccc(Nc4nccc(-c5cn(C)c6ccccc56)n4)cc3)CC2)CC1`, the IC50 in series [1] came to 1.31 µM; in [2] it was 0.84 µM.

As for `COc1ccc(NC(=O)CCN)cc1Nc1nccc(-c2cn(C)c3ccccc23)n1`, the values for the IC50 in series [1] and in series [2] were 1.23 µM and 1.46 µM, respectively.

For the compound `COc1cc(N2CCC(N(C)C)CC2)c(NC(=O)CO)cc1Nc1nccc(-c2cn(C)c3ccccc23)n1`, the IC50 in [1] came out at 0.48 µM; in series [2], 0.46 µM.

Regarding `COCC(=O)Nc1cc(Nc2nccc(-c3cn(C)c4ccccc34)n2)c(OC)cc1N1CCC(N(C)C)CC1`, the IC50 in series [1] was 0.45 µM; in series [2], 0.46 µM.

Regarding `CC(=O)N1CCN(c2ccc(Nc3nccc(-c4cn(C)c5ccccc45)n3)cc2)CC1`, the figures for the IC50 in [1] and in series [2] were 1.5 µM and 1.05 µM, respectively.
